Source: patent US20220089541A1, “Compounds for the Treatment of Kinase-Dependent Disorders” (Exelixis, Inc., priority 2019, published 2022)
pIC50: −log10 of the molar value.

Molecular target: T1, Met (Homo sapiens, UniProt P08581)
T1 construct: host or cells: PC-3 prostate cancer cells
Test: Met autophosphorylation ELISA in PC-3 cells
Type: cell-based
Conditions: PC-3 prostate cancer cells, HGF-stimulated, phospho-Met ELISA, 1 h compound incubation; read-out: c-Met IC50
Experimental: Example B: Met Autophosphorylation ELISA in PC-3 Cells
PC-3 prostate cancer cells (ATCC #CRL-1435) were seeded at 4×10^4 cells/well onto 24-well plates (Greiner #662165), in DMEM (Thermo Fisher #11995-040) containing 10% FBS (Thermo Fisher #26140-079), 1% MEM NEAA (Thermo Fisher #11140-050), 1% GlutaMax (Thermo Fisher #35050-061), and 1% Penicillin Streptomycin (Thermo Fisher #15140-122). PC-3 cells were incubated at 37° C., 5% CO2 for 24 h and then starved for 3 h in serum-free medium. Test compounds were serially diluted to produce an 8-point dose curve in fresh serum-free medium to a final concentration of 0.3% DMSO (vehicle) and added to the cells and incubated for 1 h. Cells were then stimulated with 100 ng/mL recombinant human HGF (R&D Systems #294-HG-250) for 10 min, washed with cold PBS, and immediately lysed with 130 μL of cold IX lysis buffer [20 mM Tris, 137 mM sodium chloride, 2 mM EDTA, 10% glycerol, 1% NP-40 alternative, 1 mM activated sodium orthovanadate, 1 mM PefaBloc SC (Sigma-Aldrich #11429868001), protease/phosphatase inhibitor tablet (Thermo Fisher #A32959)]. Lysates were clarified by centrifugation and 100 μL/well added into the PathScan phospho-Met (panTyr) Sandwich ELISA (Cell Signaling Technology #7333). Assay was performed according to manufacturer's instructions. Positive control wells (100% activity) contained HGF-stimulated, DMSO-treated cell lysates. Negative control wells (0% activity) contained HGF-stimulated, reference inhibitor-treated cell lysates. IC50 values were calculated by nonlinear regression analysis using a 4-parameter logistic curve fit in ActivityBase XE (IDBS).

T1 sequence (P08581 25-1390): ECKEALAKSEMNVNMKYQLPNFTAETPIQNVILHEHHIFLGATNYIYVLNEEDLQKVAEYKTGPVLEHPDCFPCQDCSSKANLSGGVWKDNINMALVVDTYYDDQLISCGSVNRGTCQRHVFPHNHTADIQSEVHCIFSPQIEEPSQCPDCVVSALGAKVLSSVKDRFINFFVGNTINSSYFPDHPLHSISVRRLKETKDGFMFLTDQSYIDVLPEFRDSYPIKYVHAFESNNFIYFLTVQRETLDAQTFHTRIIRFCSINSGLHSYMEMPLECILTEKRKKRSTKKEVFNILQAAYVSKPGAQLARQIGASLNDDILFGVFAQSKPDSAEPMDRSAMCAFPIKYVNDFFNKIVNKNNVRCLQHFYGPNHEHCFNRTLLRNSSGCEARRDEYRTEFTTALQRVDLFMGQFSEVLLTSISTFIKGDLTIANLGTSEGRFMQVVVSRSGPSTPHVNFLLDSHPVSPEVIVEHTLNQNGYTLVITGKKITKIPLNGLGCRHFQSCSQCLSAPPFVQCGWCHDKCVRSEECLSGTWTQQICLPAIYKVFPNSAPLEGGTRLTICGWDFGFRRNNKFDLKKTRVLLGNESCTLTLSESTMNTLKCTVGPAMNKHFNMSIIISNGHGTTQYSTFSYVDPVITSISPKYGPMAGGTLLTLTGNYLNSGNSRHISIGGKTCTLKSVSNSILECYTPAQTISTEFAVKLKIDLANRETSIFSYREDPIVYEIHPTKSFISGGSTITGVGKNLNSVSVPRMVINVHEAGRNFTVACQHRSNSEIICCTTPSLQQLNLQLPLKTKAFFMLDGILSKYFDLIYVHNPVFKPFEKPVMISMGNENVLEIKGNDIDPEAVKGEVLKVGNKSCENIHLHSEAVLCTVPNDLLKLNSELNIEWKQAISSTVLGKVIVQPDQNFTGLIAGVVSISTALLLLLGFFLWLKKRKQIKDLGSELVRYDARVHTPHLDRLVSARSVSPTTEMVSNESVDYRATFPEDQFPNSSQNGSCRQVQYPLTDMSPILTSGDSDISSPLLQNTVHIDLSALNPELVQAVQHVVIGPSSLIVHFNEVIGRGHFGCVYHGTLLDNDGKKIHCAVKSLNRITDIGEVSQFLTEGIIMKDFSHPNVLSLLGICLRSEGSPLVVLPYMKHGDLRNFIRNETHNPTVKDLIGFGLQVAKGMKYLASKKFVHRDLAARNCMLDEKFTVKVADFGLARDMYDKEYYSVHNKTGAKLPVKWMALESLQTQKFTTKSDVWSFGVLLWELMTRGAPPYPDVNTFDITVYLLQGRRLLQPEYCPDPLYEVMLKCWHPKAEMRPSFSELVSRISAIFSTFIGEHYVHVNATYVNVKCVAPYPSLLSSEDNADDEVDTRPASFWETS

pIC50	Compound
< 6.52	COc1cc2nccc(Oc3ccc(NC(=O)C4(C(=O)N(C)c5ccc(F)cc5)CC4)cc3)c2cc1OC [Compound 9, 1-N-[4-(6,7-Dimethoxyquinolin-4-yl)oxyphenyl]-1-N′-(4-fluorophenyl)-1-N′-methylcyclopropane-1,1-dicarboxamide]
< 6.52	COc1cc2nccc(Oc3ccc(NC(=O)C4(C(=O)N(C)c5ccc(F)cc5)CC4)cc3F)c2cc1OC [Compound 10, N-(4-((6,7-Dimethoxyquinolin-4-yl)oxy)-3-fluorophenyl)-N-(4-fluorophenyl)-N-methylcyclopropane-1,1-dicarboxamide]
< 6.52	CNC(=O)c1cc2c(Oc3ncc(NC(=O)C4(C(=O)N(C)c5ccc(F)cc5)CC4)cc3F)ccnc2cc1OC [Compound 34, 1-N-[5-Fluoro-6-[7-methoxy-6-(methylcarbamoyl)quinolin-4-yl]oxypyridin-3-yl]-1-N′-(4-fluorophenyl)-1-N′-methylcyclopropane-1,1-dicarboxamide]
< 6.52	COc1cc2nccc(Oc3ncc(NC(=O)C4(C(=O)N(C)c5ccc(F)cc5)CC4)cc3F)c2cc1C(N)=O [Compound 35, 1-N-[6-(6-Carbamoyl-7-methoxyquinolin-4-yl)oxy-5-fluoropyridin-3-yl]-1-N′-(4-fluorophenyl)-1-N′-methylcyclopropane-1,1-dicarboxamide]
< 6.52	COc1cc2nccc(Oc3ccc(N(C)C(=O)C4(C(=O)Nc5ccc(F)cc5)CC4)cc3F)c2cc1OC [Compound 51, 1-N′-[4-(6,7-Dimethoxyquinolin-4-yl)oxy-3-fluorophenyl]-1-N-(4-fluorophenyl)-1-N′-methylcyclopropane-1,1-dicarboxamide]
